# What was measured:
# [1] = In-vitro release of bupivacaine, USP Apparatus 2 Paddle Method, pH 3.0; assay type: physicochemical
# Protocol: The in-vitro dissolution range described above may be determined by subjecting the local anesthetic formulation to in-vitro conditions specified by the USP II Paddle Method, 100 RPM, 37 degrees Celsius, pH 3.0 in 900 ml of 10 mM sodium phosphate buffer.
# (§1) The in-vitro release of bupivacaine from the microcapsules of Examples 1 and 2 was examined. Dissolution was performed by using USP Apparatus 2 Paddle Method <711>at 100 rpm at 37° C. A 80 mg±3 mg of sample, irrespective of microcapsules formulation, was employed per vessel containing 900 mL of 10 mM Sodium Phosphate Buffer, pH 3.0. The samples (clear solution) were withdrawn at preset time intervals and analyzed for bupivacaine base by HPLC. The HPLC conditions are:
# as §1, with “the microspheres” for “the microcapsules”, “Examples 2 (batches 1-4), 2A, 3,” for “Examples 1”, “and 4” for “and 2”, “Method at” for “Method <711>at”, “of microsphere” for “of microcapsules”, “HPLC.” for “HPLC. The HPLC conditions are:”
# The in-vitro release of bupivacaine from the microspheres of Examples 2B was examined. Dissolution was performed by using USP Apparatus 2 Paddle Method <711> at 100 rpm at 37° C. A 80 mg±3 mg of sample, irrespective of microsphere formulation, was employed per vessel containing 900 mL of 10 mM Sodium Phosphate Buffer, pH 3.0. The samples (clear solution) were withdrawn at preset time intervals and analyzed for bupivacaine base by HPLC. The following 24 hour dissolution release rates in Table 7B are preferred release rates which were based on batches made in accordance with the formulation of Example 2B (10 Kg scale batches).
# [2] = Moore et al. 1976; cited from earlier work
smiles,measurement,setting,value
CCCCN1CCCCC1C(=O)Nc1c(C)cccc1C (stereo not drawn) [Bupivacaine base],In Vitro Release of Bupivacaine (Cumulative Release %),[1]; 0.5 h,96.5%
same,In Vitro Release of Bupivacaine (Cumulative Release %),[1]; 1 h,97.09%
same,In Vitro Release of Bupivacaine (Cumulative Release %),[1]; 2 h,97.035%
same,In Vitro Release of Bupivacaine (Cumulative Release %),[1]; 3 h,97.275%
same,In Vitro Release of Bupivacaine (Cumulative Release %),[1]; 4 h,97.665%
same,plasma bupivacaine level at which systemic toxic reactions are believed to occur,[2],4000 ng/mL

# Source: patent US20030152637A1, “Local anesthetic, and method of use” (priority 2001, published 2003)
